Experimental data: article PMC6637912 (Molecular Plant Pathology, 2019)
Like-named read-outs stand apart in the source and are kept apart here.

Molecular target: T1, RipN (Ralstonia pseudosolanacearum, UniProt Q8XQT8)
T1 construct: gene RSp1130
Conditions: Mg2+ important, NEBuffer 3, 30 min

T1 sequence (Q8XQT8 1-474): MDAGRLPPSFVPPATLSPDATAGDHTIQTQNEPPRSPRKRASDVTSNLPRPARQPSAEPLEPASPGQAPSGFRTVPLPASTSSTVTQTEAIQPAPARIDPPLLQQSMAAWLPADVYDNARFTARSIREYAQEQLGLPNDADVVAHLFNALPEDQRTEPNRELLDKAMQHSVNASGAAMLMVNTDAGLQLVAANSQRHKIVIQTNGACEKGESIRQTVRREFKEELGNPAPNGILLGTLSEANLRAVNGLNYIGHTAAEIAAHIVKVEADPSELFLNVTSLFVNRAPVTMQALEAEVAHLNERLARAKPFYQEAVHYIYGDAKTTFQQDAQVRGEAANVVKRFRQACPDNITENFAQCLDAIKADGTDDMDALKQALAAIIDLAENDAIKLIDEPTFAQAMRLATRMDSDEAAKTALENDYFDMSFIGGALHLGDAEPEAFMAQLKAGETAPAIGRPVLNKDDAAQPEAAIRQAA

| SMILES | phosphate colorimetric assay coupled to alkaline phosphatase | phosphate colorimetric assay coupled to alkaline phosphatase (optimum pH 7.9-8.5) |
| --- | --- | --- |
| NC(=O)C1=CN([C@@H]2O[C@H](COP(=O)(O)OP(=O)(O)OC[C@H]3O[C@@H](n4cnc5c(N)ncnc54)[C@H](O)[C@@H]3O)[C@@H](O)[C@H]2O)C=CC1 [NADH] | with ADPr and NADH being the preferred substrates in vitro | – |
| Nc1ncnc2c1ncn2[C@@H]1O[C@H](COP(=O)(O)OP(=O)(O)OC[C@H]2OC(O)[C@H](O)[C@@H]2O)[C@@H](O)[C@H]1O (some centres unmarked) [ADPr] | – | RipN can hydrolyse ADPr, NADH, NAD, FAD (flavin adenine dinucleotide) and Ap4A |
